What follows are molecules tested against T1, GLP-1R (Homo sapiens, UniProt P43220) (assay: GLP-1R activation cAMP assay (Assay 1 or Assay 2)). Conditions: cAMP increase in CHO cells stably expressing GLP-1R; compounds run on one of the two cAMP assays.
T1 construct: host or cells: CHO cells
Format: cell-based
Summary of the method: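 EC50 values come from a sigmoidal fit of HTRF-detected cAMP rise versus log agonist concentration. GLP-1R-expressing CHO cells, equilibrated 1 h at 37 °C in HBSS with HEPES and BSA, received a 10-point compound dose series for 30 min before detection.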

T1 sequence (P43220 24-463): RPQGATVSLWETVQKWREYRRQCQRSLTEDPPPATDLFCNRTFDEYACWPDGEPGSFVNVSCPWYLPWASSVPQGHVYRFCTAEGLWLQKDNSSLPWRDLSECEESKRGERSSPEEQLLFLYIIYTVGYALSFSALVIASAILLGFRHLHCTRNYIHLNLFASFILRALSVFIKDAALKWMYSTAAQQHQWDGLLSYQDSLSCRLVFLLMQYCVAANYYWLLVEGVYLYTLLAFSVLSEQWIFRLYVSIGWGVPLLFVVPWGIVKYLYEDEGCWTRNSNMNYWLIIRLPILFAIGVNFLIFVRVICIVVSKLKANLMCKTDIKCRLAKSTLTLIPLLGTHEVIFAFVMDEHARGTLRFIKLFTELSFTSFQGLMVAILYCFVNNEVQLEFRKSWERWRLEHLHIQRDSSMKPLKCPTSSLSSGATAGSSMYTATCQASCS

Row | SMILES | EC50 [nM]
1 | CN1CC(n2cc(-c3ccc(COc4cccc(-c5cc(F)c(Cc6nc7ccc(C(=O)O)cc7n6C[C@@H]6CCO6)cc5F)n4)c(F)c3)nn2)C1 [Example 220, (S)-2-(2,5-difluoro-4-(6-((2-fluoro-4-(1-(1-methylazetidin-3-yl)-1H-1,2,3-triazol-4-yl)benzyl)oxy)pyridin-2-yl)benzyl)-1-(oxetan-2-ylmethyl)-1H-benzo[d]imidazole-6-carboxylic acid] | 2.08
2 | COc1cc(COc2cccc(-c3cc(F)c(Cc4nc5ccc(C(=O)O)cc5n4C[C@@H]4CCO4)cc3F)n2)nn1C [Example 68, (S)-2-(2,5-difluoro-4-(6-((5-methoxy-1-methyl-1H-pyrazol-3-yl)methoxy)pyridin-2-yl)benzyl)-1-(oxetan-2-ylmethyl)-1H-benzo[d]imidazole-6-carboxylic acid] | 5.37
3 | Cc1cc(Cc2nc3c(F)cc(C(=O)O)cc3n2C[C@@H]2CCO2)c(F)cc1-c1cccc(OCc2ccc(C#Cc3cnn(C)c3)cc2F)n1 [Example 153, (S)-4-fluoro-2-(2-fluoro-4-(6-((2-fluoro-4-((1-methyl-1H-pyrazol-4-yl)ethynyl)benzyl)oxy)pyridin-2-yl)-5-methylbenzyl)-1-(oxetan-2-ylmethyl)-1H-benzo[d]imidazole-6-carboxylic acid] | 0.36
4 | NC(=O)c1ccc(COc2cccc(-c3ccc(Cc4nc5ccc(C(=O)O)cc5n4C[C@@H]4CCO4)cc3F)n2)cn1 [Example 173, (S)-2-(4-(6-((6-carbamoylpyridin-3-yl)methoxy)pyridin-2-yl)-3-fluorobenzyl)-1-(oxetan-2-ylmethyl)-1H-benzo[d]imidazole-6-carboxylic acid] | 23.2
5 | N#CC1(NC(=O)c2cc(Cl)c(COc3cccc(-c4cc(F)c(Cc5nc6ccc(C(=O)O)cc6n5C[C@@H]5CCO5)cc4F)n3)cn2)COC1 [Example 187, (S)-2-(4-(6-((4-chloro-6-((3-cyanooxetan-3-yl)carbamoyl)pyridin-3-yl)methoxy)pyridin-2-yl)-2,5-difluorobenzyl)-1-(oxetan-2-ylmethyl)-1H-benzo[d]imidazole-6-carboxylic acid] | 0.12
6 | O=C(O)c1cc(F)c2nc(Cc3cc(F)c(-c4ccc(F)c(OCc5ncc(Cl)s5)n4)cc3F)n(C[C@@H]3CCO3)c2c1 [Example 311, (S)-2-(4-(6-((5-chlorothiazol-2-yl)methoxy)-5-fluoropyridin-2-yl)-2,5-difluorobenzyl)-4-fluoro-1-(oxetan-2-ylmethyl)-1H-benzo[d]imidazole-6-carboxylic acid] | 0.03
7 | COc1nnc(COc2nc(-c3cc(F)c(Cc4nc5ccc(C(=O)O)cc5n4[C@@H]4COCC4(C)C)cc3C)ccc2F)s1 [Example 258, (S)-1-(4,4-dimethyltetrahydrofuran-3-yl)-2-(2-fluoro-4-(5-fluoro-6-((5-methoxy-1,3,4-thiadiazol-2-yl)methoxy)pyridin-2-yl)-5-methylbenzyl)-1H-benzo[d]imidazole-6-carboxylic acid] | 0.483
8 | N#Cc1cccc(C#Cc2cnc(COc3cccc(-c4cc(F)c(Cc5nc6ccc(C(=O)O)cc6n5C[C@@H]5CCO5)cc4F)n3)s2)c1 [Example 316, (S)-2-(4-(6-((5-((3-cyanophenyl)ethynyl)thiazol-2-yl)methoxy)pyridin-2-yl)-2,5-difluorobenzyl)-1-(oxetan-2-ylmethyl)-1H-benzo[d]imidazole-6-carboxylic acid] | 0.129
9 | O=C(O)c1ccc2nc(Cc3cc(F)c(-c4cccc(OCc5cnc(C(=O)NC6CCCC6)cc5F)n4)cc3F)n(C[C@@H]3CCO3)c2c1 [Example 244, (S)-2-(4-(6-((6-(cyclopentylcarbamoyl)-4-fluoropyridin-3-yl)methoxy)pyridin-2-yl)-2,5-difluorobenzyl)-1-(oxetan-2-ylmethyl)-1H-benzo[d]imidazole-6-carboxylic acid] | 2.28
10 | O=C(O)c1ccc2nc(Cc3cc(F)c(-c4cccc(OCc5nnc(C(F)F)s5)n4)cc3F)n(C[C@@H]3CCO3)c2c1 [Example 15, (S)-2-(4-(6-((5-(difluoromethyl)-1,3,4-thiadiazol-2-yl)methoxy)pyridin-2-yl)-2,5-difluorobenzyl)-1-(oxetan-2-ylmethyl)-1H-benzo[d]imidazole-6-carboxylic acid] | 0.96
11 | Cn1cncc1C#Cc1cnc(COc2cccc(-c3cc(F)c(Cc4nc5ccc(C(=O)O)cc5n4C[C@@H]4CCO4)cc3F)n2)c(F)c1 [Example 293, (S)-2-(2,5-difluoro-4-(6-((3-fluoro-5-((1-methyl-1H-imidazol-5-yl)ethynyl)pyridin-2-yl)methoxy)pyridin-2-yl)benzyl)-1-(oxetan-2-ylmethyl)-1H-benzo[d]imidazole-6-carboxylic acid] | 0.184
12 | O=C(O)c1ccc2nc(Cc3cc(F)c(-c4cccc(OCc5ncc(-c6cnn(C7CC7)c6)s5)n4)cc3F)n(C[C@@H]3CCO3)c2c1 [Example 90, (S)-2-(4-(6-((5-(1-cyclopropyl-1H-pyrazol-4-yl)thiazol-2-yl)methoxy)pyridin-2-yl)-2,5-difluorobenzyl)-1-(oxetan-2-ylmethyl)-1H-benzo[d]imidazole-6-carboxylic acid] | 0.21
13 | N#CCn1nccc1COc1cccc(-c2cc(F)c(Cc3nc4ccc(C(=O)O)cc4n3C[C@@H]3CCO3)cc2F)n1 [Example 239, (S)-2-(4-(6-((1-(cyanomethyl)-1H-pyrazol-5-yl)methoxy)pyridin-2-yl)-2,5-difluorobenzyl)-1-(oxetan-2-ylmethyl)-1H-benzo[d]imidazole-6-carboxylic acid] | 447
14 | Cc1ncc(C#Cc2ccc(COc3cccc(-c4cc(F)c(Cc5nc6ccc(C(=O)O)cc6n5C[C@@H]5CCO5)cc4F)n3)cc2)cn1 [Example 305, (S)-2-(2,5-difluoro-4-(6-((4-((2-methylpyrimidin-5-yl)ethynyl)benzyl)oxy)pyridin-2-yl)benzyl)-1-(oxetan-2-ylmethyl)-1H-benzo[d]imidazole-6-carboxylic acid] | 0.305

Second part, the molecule after the results:

Row | EC50 [nM] | SMILES
15 | 0.28 | O=C(O)c1ccc2nc(Cc3cc(F)c(-c4ccc(F)c(OCc5ncc(C(F)(F)F)s5)n4)cc3F)n(C[C@@H]3CCO3)c2c1 [Example 370, (S)-2-(2,5-difluoro-4-(5-fluoro-6-((5-(trifluoromethyl)thiazol-2-yl)methoxy)pyridin-2-yl)benzyl)-1-(oxetan-2-ylmethyl)-1H-benzo[d]imidazole-6-carboxylic acid]
16 | 0.023 | CCOc1nnc(COc2nc(-c3cc(F)c(Cc4nc5c(F)cc(C(=O)O)cc5n4[C@@H]4COCC4(C)C)cc3F)ccc2F)s1 [Example 423, (S)-1-(4,4-dimethyltetrahydrofuran-3-yl)-2-(4-(6-((5-ethoxy-1,3,4-thiadiazol-2-yl)methoxy)-5-fluoropyridin-2-yl)-2,5-difluorobenzyl)-4-fluoro-1H-benzo[d]imidazole-6-carboxylic acid]
17 | 0.397 | COc1nnc(COc2cccc(-c3cc(F)c(Cc4nc5c(F)cc(C(=O)O)cc5n4[C@@H]4COCC4(C)C)c(F)c3)n2)s1 [Example 439, (S)-2-(2,6-difluoro-4-(6-((5-methoxy-1,3,4-thiadiazol-2-yl)methoxy)pyridin-2-yl)benzyl)-1-(4,4-dimethyltetrahydrofuran-3-yl)-4-fluoro-1H-benzo[d]imidazole-6-carboxylic acid]
18 | 0.305 | Cn1cc(C#Cc2ccc(COc3cccc(-c4cc(F)c(Cc5nc6c(F)cc(C(=O)O)cc6n5C[C@@H]5CCO5)cc4F)n3)cn2)cn1 [Example 391, (S)-2-(2,5-difluoro-4-(6-((6-((1-methyl-1H-pyrazol-4-yl)ethynyl)pyridin-3-yl)methoxy)pyridin-2-yl)benzyl)-4-fluoro-1-(oxetan-2-ylmethyl)-1H-benzo[d]imidazole-6-carboxylic acid]
19 | 0.109 | O=C(O)c1ccc2nc(Cc3cc(F)c(-c4cccc(OCc5nc6c(s5)CCC6)n4)cc3F)n(C[C@@H]3CCO3)c2c1 [Example 332, (S)-2-(4-(6-((5,6-dihydro-4H-cyclopenta[d]thiazol-2-yl)methoxy)pyridin-2-yl)-2,5-difluorobenzyl)-1-(oxetan-2-ylmethyl)-1H-benzo[d]imidazole-6-carboxylic acid]
20 | 0.11 | O=C(O)c1ccc2nc(Cc3cc(F)c(-c4cccc(OCc5nnc(C6CC(F)(F)C6)s5)n4)cc3F)n(C[C@@H]3CCO3)c2c1 [Example 385, (S)-2-(4-(6-((5-(3,3-difluorocyclobutyl)-1,3,4-thiadiazol-2-yl)methoxy)pyridin-2-yl)-2,5-difluorobenzyl)-1-(oxetan-2-ylmethyl)-1H-benzo[d]imidazole-6-carboxylic acid]
21 | 0.051 | Cn1ncc(C#Cc2ccc(COc3cccc(-c4cc(F)c(Cc5nc6ccc(C(=O)O)cc6n5C[C@@H]5CCO5)cc4F)n3)c(F)c2)c1C(N)=O [Example 359, (S)-2-(4-(6-((4-((5-carbamoyl-1-methyl-1H-pyrazol-4-yl)ethynyl)-2-fluorobenzyl)oxy)pyridin-2-yl)-2,5-difluorobenzyl)-1-(oxetan-2-ylmethyl)-1H-benzo[d]imidazole-6-carboxylic acid]
22 | 0.683 | Cc1cc(Cc2nc3ccc(C(=O)O)cc3n2C[C@@H]2CCO2)c(Cl)cc1-c1ccc(F)c(OCc2ncc(C(F)(F)F)s2)n1 [Example 369, (S)-2-(2-chloro-4-(5-fluoro-6-((5-(trifluoromethyl)thiazol-2-yl)methoxy)pyridin-2-yl)-5-methylbenzyl)-1-(oxetan-2-ylmethyl)-1H-benzo[d]imidazole-6-carboxylic acid]
23 | 3.63 | Cc1cc(Cc2nc3ccc(C(=O)O)cc3n2[C@@H]2COCC2(C)C)c(Cl)cc1-c1cccc(OCc2ncc(C(C)(F)F)s2)n1 [Example 428, (S)-2-(2-chloro-4-(6-((5-(1,1-difluoroethyl)thiazol-2-yl)methoxy)pyridin-2-yl)-5-methylbenzyl)-1-(4,4-dimethyltetrahydrofuran-3-yl)-1H-benzo[d]imidazole-6-carboxylic acid]

Source: US20250312352A1, “GLP-1R MODULATING COMPOUNDS” (Gilead Sciences, Inc., priority 2021, published 2025)
